Assay results reported in patent US9451775B2, “Heterocyclic compounds as pesticides” (Bayer Intellectual Property GmbH, priority 2008, dated 2016).

system: not listed separately; test: logP determination by HPLC (formic acid method); format: physicochemical; settings: reversed-phase HPLC column (C18), pH 3.4, HPLC on reversed-phase column (C18), acidic range (pH 3.4), 55° C.; read-out: logP (HCOOH)
In short: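 Reversed-phase C18 HPLC at 55 °C, pH 3.4, with a 4.25 min gradient from 10% to 95% acetonitrile (formic acid-modified water/acetonitrile phases). logP was derived from retention time by linear interpolation between unbranched alkan-2-ones (C3-C16) of known logP.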

Row | SMILES | chromatographic logP
1 | Cc1nc(-c2cccnc2)sc1-c1ccn(Cc2ccccn2)n1 [Ex. No. 27] | 1.69
2 | FC(F)(F)c1cccc(-c2cnc(-c3cccnc3)s2)n1 [Ex. No. 49] | 2.81
3 | C#CC(C)(C)NC(=O)n1ccc(-c2sc(-c3cccnc3)nc2C)n1 [compound 134] | 2.69
4 | COCCCNC(=S)n1ccc(-c2sc(-c3cccnc3)nc2C)n1 [compound 135] | 3.28
5 | Cc1nc(-c2cccnc2)sc1-c1ccn(C(=S)NC(C)c2ccccc2)n1 (centres unmarked) [compound 136] | 4.41
6 | CNC(=S)n1ccc(-c2sc(-c3cccnc3)nc2C)n1 [compound 137] | 2.65
7 | Cc1nc(-c2cccnc2)sc1-c1nc(-c2ccncc2)no1 [compound 138] | 2.19
8 | Cc1cccc(-c2noc(-c3sc(-c4cccnc4)nc3C)n2)n1 [compound 139] | 2.61
9 | Cc1nc(-c2cccnc2)sc1-c1ccn(C(=S)NCC(F)(F)F)n1 [compound 141] | 3.42
10 | Cc1nc(-c2cccnc2)sc1-c1ccnc(C(F)(F)C(F)(F)F)n1 [compound 142] | 3.35
11 | Cc1nc(-c2cccnc2)sc1-c1ccn(C(=S)NCC(C)C)n1 [compound 143] | 4.28
12 | Cc1nc(-c2cccnc2)sc1-c1ccc(C(F)(F)F)nc1 [compound 144] | 2.72
13 | Cc1noc(Cn2ccc(-c3sc(-c4cccnc4)nc3C)n2)n1 [compound 145] | 1.71
14 | Cc1nc(-c2cccnc2)sc1-c1ccn(Cc2ncccn2)n1 [compound 146] | 1.43
15 | c1cnc(Cn2ccc(-c3cnc(-c4cccnc4)s3)n2)nc1 [compound 147] | 1.24
16 | c1cncc(-c2ncc(-c3cccc(C4=NOCCO4)n3)s2)c1 [compound 148] | 1.59
17 | c1cncc(-c2ncc(-c3cccc(-n4ccnn4)n3)s2)c1 [compound 149] | 1.85
18 | Cc1nc(-c2cncnc2)sc1-c1cccc(-c2ncccn2)n1 [compound 150] | 1.76
19 | c1cnc(-c2cccc(-c3cnc(-c4cncnc4)s3)n2)nc1 [compound 151] | 1.54
20 | Cc1nc(-c2cncc(F)c2)sc1-c1cccc(-c2ncccn2)n1 [compound 152] | 2.43

Row | SMILES | chromatographic logP
21 | Fc1cncc(-c2ncc(-c3cccc(-c4ncccn4)n3)s2)c1 [compound 153] | 2.11
22 | Cc1nc(-c2cccnc2)sc1-c1cccc(-n2ccnn2)n1 [compound 154] | 2.13
23 | c1cncc(-c2ncc(-c3cccc(-n4nccn4)n3)s2)c1 [compound 155] | 1.89
24 | Cc1nc(-c2cccnc2)sc1-c1cccc(-n2nc(C(F)(F)F)n(C)c2=O)n1 [compound 156] | 2.65
25 | Cn1c(C(F)(F)F)nn(-c2cccc(-c3cnc(-c4cccnc4)s3)n2)c1=O [compound 157] | 2.35
26 | c1cncc(-c2nnc(-c3ccncc3)s2)c1 [compound 158] | 1.41
27 | FC(F)(F)Oc1cccc(-c2nnc(-c3cccnc3)s2)c1 [compound 159] | 3.16
28 | c1cnc(-n2ccc(-c3nnc(-c4cccnc4)s3)n2)nc1 [compound 160] | 1.44
29 | c1cnc(-n2nccc2-c2nnc(-c3cccnc3)s2)nc1 [compound 161] | 1.13
30 | c1cncc(-c2nnc(-c3cc[nH]n3)s2)c1 [compound 162] | 0.84
31 | c1cncc(-c2nnc(-c3cccnc3)s2)c1 [compound 163] | 1.07
32 | c1cnc(-c2cccc(-c3nnc(-c4cncnc4)s3)n2)nc1 [compound 164] | 1.39
33 | Fc1cncc(-c2nnc(-c3cccc(-c4ncccn4)n3)s2)c1 [compound 165] | 1.91
34 | Cn1nc(-c2cccnc2)cc1-c1ccn(Cc2ccccn2)n1 [compound 166] | 0.91
35 | COCc1nccc(-c2cc(-c3cccnc3)nn2C)n1 [compound 167] | 0.83
36 | Cn1nc(-c2cccnc2)cc1C1=NN(c2ncccn2)CCO1 [compound 168] | 0.95
37 | Cn1nc(-c2cccnc2)cc1-c1ccn(-c2ccccn2)n1 [compound 169] | 1.64
38 | Cn1nc(-c2cccnc2)cc1-c1cc[nH]n1 [compound 170] | 0.42
39 | Cn1nc(-c2cccnc2)cc1-c1ccnc(-c2ccccn2)n1 [compound 171] | 0.87

system: green peach aphid (Myzus persicae); test: Myzus test (spray treatment); format: in vivo; settings: foliar, application rate of 500 g/ha, sprayed Chinese cabbage leaf discs, read-out: activity (effect in %, aphids killed)
In short: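 Chinese cabbage leaf discs heavily infested with all stages of the aphid are sprayed with compound formulated in acetone/dimethylformamide with alkylaryl polyglycol ether emulsifier, diluted in emulsifier-containing water. After a set period, kill is scored in %: 100% all aphids dead, 0% none.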

Row | SMILES | pest or weed control at 500 g/ha [%]
40 | Cc1nc(-c2cccnc2)sc1-c1ccn(Cc2ccccn2)n1 [Ex. No. 27] | ≥ 80
41 | FC(F)(F)c1cccc(-c2cnc(-c3cccnc3)s2)n1 [Ex. No. 49] | ≥ 80
42 | C#CC(C)(C)NC(=O)n1ccc(-c2sc(-c3cccnc3)nc2C)n1 [compound 134] | ≥ 80
43 | COCCCNC(=S)n1ccc(-c2sc(-c3cccnc3)nc2C)n1 [compound 135] | ≥ 80
44 | Cc1nc(-c2cccnc2)sc1-c1ccn(C(=S)NC(C)c2ccccc2)n1 (centres unmarked) [compound 136] | ≥ 80
45 | CNC(=S)n1ccc(-c2sc(-c3cccnc3)nc2C)n1 [compound 137] | ≥ 80
46 | Cc1nc(-c2cccnc2)sc1-c1nc(-c2ccncc2)no1 [compound 138] | ≥ 80
47 | Cc1cccc(-c2noc(-c3sc(-c4cccnc4)nc3C)n2)n1 [compound 139] | ≥ 80
48 | Cc1nc(-c2cccnc2)sc1-c1ccn(C(=S)NCC(F)(F)F)n1 [compound 141] | ≥ 80
49 | Cc1nc(-c2cccnc2)sc1-c1ccnc(C(F)(F)C(F)(F)F)n1 [compound 142] | ≥ 80
50 | Cc1nc(-c2cccnc2)sc1-c1ccn(C(=S)NCC(C)C)n1 [compound 143] | ≥ 80
51 | Cc1nc(-c2cccnc2)sc1-c1ccc(C(F)(F)F)nc1 [compound 144] | ≥ 80
52 | Cc1noc(Cn2ccc(-c3sc(-c4cccnc4)nc3C)n2)n1 [compound 145] | ≥ 80
53 | Cc1nc(-c2cccnc2)sc1-c1ccn(Cc2ncccn2)n1 [compound 146] | ≥ 80
54 | c1cnc(Cn2ccc(-c3cnc(-c4cccnc4)s3)n2)nc1 [compound 147] | ≥ 80
55 | c1cncc(-c2ncc(-c3cccc(C4=NOCCO4)n3)s2)c1 [compound 148] | ≥ 80
56 | c1cncc(-c2ncc(-c3cccc(-n4ccnn4)n3)s2)c1 [compound 149] | ≥ 80
57 | Cc1nc(-c2cncnc2)sc1-c1cccc(-c2ncccn2)n1 [compound 150] | ≥ 80
58 | c1cnc(-c2cccc(-c3cnc(-c4cncnc4)s3)n2)nc1 [compound 151] | ≥ 80
59 | Cc1nc(-c2cncc(F)c2)sc1-c1cccc(-c2ncccn2)n1 [compound 152] | ≥ 80

Row | SMILES | pest or weed control at 500 g/ha [%]
60 | Fc1cncc(-c2ncc(-c3cccc(-c4ncccn4)n3)s2)c1 [compound 153] | ≥ 80
61 | Cc1nc(-c2cccnc2)sc1-c1cccc(-n2ccnn2)n1 [compound 154] | ≥ 80
62 | c1cncc(-c2ncc(-c3cccc(-n4nccn4)n3)s2)c1 [compound 155] | ≥ 80
63 | Cc1nc(-c2cccnc2)sc1-c1cccc(-n2nc(C(F)(F)F)n(C)c2=O)n1 [compound 156] | ≥ 80
64 | Cn1c(C(F)(F)F)nn(-c2cccc(-c3cnc(-c4cccnc4)s3)n2)c1=O [compound 157] | ≥ 80
65 | c1cncc(-c2nnc(-c3ccncc3)s2)c1 [compound 158] | ≥ 80
66 | FC(F)(F)Oc1cccc(-c2nnc(-c3cccnc3)s2)c1 [compound 159] | ≥ 80
67 | c1cnc(-n2ccc(-c3nnc(-c4cccnc4)s3)n2)nc1 [compound 160] | ≥ 80
68 | c1cnc(-n2nccc2-c2nnc(-c3cccnc3)s2)nc1 [compound 161] | ≥ 80
69 | c1cncc(-c2nnc(-c3cc[nH]n3)s2)c1 [compound 162] | ≥ 80
70 | c1cncc(-c2nnc(-c3cccnc3)s2)c1 [compound 163] | ≥ 80
71 | c1cnc(-c2cccc(-c3nnc(-c4cncnc4)s3)n2)nc1 [compound 164] | ≥ 80
72 | Fc1cncc(-c2nnc(-c3cccc(-c4ncccn4)n3)s2)c1 [compound 165] | ≥ 80
73 | Cn1nc(-c2cccnc2)cc1-c1ccn(Cc2ccccn2)n1 [compound 166] | ≥ 80
74 | COCc1nccc(-c2cc(-c3cccnc3)nn2C)n1 [compound 167] | ≥ 80
75 | Cn1nc(-c2cccnc2)cc1C1=NN(c2ncccn2)CCO1 [compound 168] | ≥ 80
76 | Cn1nc(-c2cccnc2)cc1-c1ccn(-c2ccccn2)n1 [compound 169] | ≥ 80
77 | Cn1nc(-c2cccnc2)cc1-c1cc[nH]n1 [compound 170] | ≥ 80
78 | Cn1nc(-c2cccnc2)cc1-c1ccnc(-c2ccccn2)n1 [compound 171] | ≥ 80

system: Boophilus microplus; test: Boophilus microplus test (injection); format: in vivo; settings: application rate of 20 μg/animal; injected into the abdomen
Description: Boophilus microplus Test (Injection) • Solvent: Dimethyl sulphoxide To produce a suitable preparation of active compound, 1 part by weight of active compound is mixed with the stated amounts of solvent, and the concentrate is diluted with water to the desired concentration. The solution of active compound is injected into the abdomen (Boophilus microplus), and the animals are transferred into dishes and stored in a climatized room. The activity is checked by examination for deposition of fertile eggs, After the desired period of time, the effect in % is determined. 100% means that none of the ticks has laid fertile eggs.

Row | SMILES | activity (effect in %, deposition of fertile eggs) [%]
79 | FC(F)(F)c1cccc(-c2cnc(-c3cccnc3)s2)n1 [Ex. No. 49] | ≥ 80

system: greenhouse red spidermite (Tetranychus urticae); test: Tetranychus test, OP-resistant (spray treatment); format: in vivo; settings: application rate of 100 g/ha; sprayed bean leaf discs
Description: Tetranychus Test, OP-Resistant (Spray Treatment)
• Solvents: 78.0 parts by weight of acetone • 1.5 parts by weight of dimethylformamide • Emulsifier: 0.5 part by weight of alkylaryl polyglycol ether
To produce a suitable preparation of active compound, 1 part by weight of active compound is mixed with the stated amounts of solvent and emulsifier, and the concentrate is diluted with emulsifier-containing water to the desired concentration.
Discs of the leaves of beans (Phaseolus vulgaris) which are infested by all stages of the greenhouse red spidermite (Tetranychus urticae) are sprayed with an active compound preparation of the desired concentration.
After the desired period of time, the effect in % is determined. 100% means that all spidermites have been killed; 0% means that none of the spidermites have been killed.

Row | SMILES | activity (effect in %, spidermites killed) [%]
80 | Cc1nc(-c2cccnc2)sc1-c1ccn(Cc2ccccn2)n1 [Ex. No. 27] | ≥ 80
